According to the NIST ThermoML archive (doi:10.1021/je700186v):
Numbers after ± are expanded uncertainties.

Conditions: Crystal; visual observation

Compound: C1CN2CCN1CC2 [1,4-diazabicyclo[2.2.2]octane]
- Normal melting temperature: 159.30 ± 1.1 °C
